# Assay results taken from patent publication US20230338510A1, “NOVEL C[…] EPITOPE P[…] AND USE THEREOF” (SHANGHAI INSTITUTE OF MATERIA MEDICA, CHINESE ACADEMY OF …, priority 2020, published 2023).
# Assays:
# human ACE2 = human ACE2 (Homo sapiens, UniProt Q9BYF1); assay: in vitro binding of biotin-labeled LP2 to ACE2 by ELISA; details: biotin-labeled polypeptide 1, 0.5 and 0.25 µg/mL, ACE2-coated plate; FIG. 10
# Protocol: In this example, LP2 was labeled with biotin, and its binding ability with human ACE2 was detected by ELISA.
# The specific determination method is as follows: the ELISA plate was coated overnight with 10ug/mL ACE2 and blocked, then biotin-labeled polypeptides of different concentrations (1, 0.5 and 0.25 µg/mL) were added. After incubated at 37° C. for 1.5 hours, HRP-Streptavidin A diluted in 1:5000 was added, and incubated at 37° C. for 1 hour. The plate was washed, then TMB was added for color development, and the plate was read at 450 nm wavelength after termination.
# RBD = format: in vivo; details: cynomolgus monkeys, subcutaneous immunization with adjuvant, 14 days after the second immunization; FIG. 8
# binding of RBD to ACE2 = assay: competitive ELISA: ability of antiserum to block the binding of RBD and ACE2; format: in vivo, cynomolgus monkeys
# Sequence of human ACE2 (Q9BYF1 18-805): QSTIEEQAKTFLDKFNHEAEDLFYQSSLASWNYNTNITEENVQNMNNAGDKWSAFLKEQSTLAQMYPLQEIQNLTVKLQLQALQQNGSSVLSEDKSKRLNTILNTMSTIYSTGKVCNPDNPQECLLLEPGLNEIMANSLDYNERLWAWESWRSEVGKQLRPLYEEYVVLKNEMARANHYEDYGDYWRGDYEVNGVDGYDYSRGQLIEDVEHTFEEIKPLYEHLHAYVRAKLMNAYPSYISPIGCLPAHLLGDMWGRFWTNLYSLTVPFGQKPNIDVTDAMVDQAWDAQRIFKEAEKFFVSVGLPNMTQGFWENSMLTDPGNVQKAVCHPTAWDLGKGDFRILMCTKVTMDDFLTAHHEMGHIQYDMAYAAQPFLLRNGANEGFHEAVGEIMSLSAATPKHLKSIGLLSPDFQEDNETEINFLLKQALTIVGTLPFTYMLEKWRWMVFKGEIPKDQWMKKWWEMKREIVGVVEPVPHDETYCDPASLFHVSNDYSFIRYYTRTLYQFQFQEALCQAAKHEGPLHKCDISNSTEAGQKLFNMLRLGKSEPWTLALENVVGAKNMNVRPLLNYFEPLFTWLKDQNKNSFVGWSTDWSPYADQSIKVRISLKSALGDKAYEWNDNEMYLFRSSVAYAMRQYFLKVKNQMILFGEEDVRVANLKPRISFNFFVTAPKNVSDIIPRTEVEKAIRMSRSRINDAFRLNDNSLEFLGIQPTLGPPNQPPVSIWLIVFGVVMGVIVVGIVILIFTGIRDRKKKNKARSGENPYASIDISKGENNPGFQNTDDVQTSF
sequence,measurement,setting,value
AKFVAAWTLKAAAGGGGYGFQPTNGVGYQPGGGGNYLYRLFRKSNLKPF [LP2],binding ability with ACE2,human ACE2,strong binding ability
same,titer of antibodies against RBD,RBD,higher titer of antibodies against RBD was produced
same,blocking effect of antiserum on the binding of RBD to ACE2,binding of RBD to ACE2; antiserum at 8-64 times of dilution,significant blocking effect
same,inhibition rate,binding of RBD to ACE2; antiserum at 8 times of dilution,more than 60%
same,inhibition rate,binding of RBD to ACE2; antiserum at 16 times of dilution,more than 40%
